The values below come from patent US9828379B2 (priority 2013, dated 2017).

Bounds are passed on as bounds.

By inhibition is commonly meant the percentage by which the read-out fell short of the control.

Common to all, as to test: In vitro competitive activity-based protein profiling (Table 2, % inhibition at 1 μM)
Common to all, as to format: biochemical

One assay concerns the target T1, ABHD6 (Mus musculus, UniProt Q8R2Y0).
T1 sequence (Q8R2Y0 1-336): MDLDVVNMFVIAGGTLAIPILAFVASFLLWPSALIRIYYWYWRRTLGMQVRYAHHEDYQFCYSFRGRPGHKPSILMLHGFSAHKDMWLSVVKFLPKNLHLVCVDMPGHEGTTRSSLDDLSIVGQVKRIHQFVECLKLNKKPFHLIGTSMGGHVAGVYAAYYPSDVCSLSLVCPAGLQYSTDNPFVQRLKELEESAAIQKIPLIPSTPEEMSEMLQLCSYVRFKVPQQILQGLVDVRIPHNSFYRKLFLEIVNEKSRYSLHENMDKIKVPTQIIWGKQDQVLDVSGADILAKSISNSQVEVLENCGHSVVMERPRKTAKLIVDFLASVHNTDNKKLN
The following applies: read-out: % Inhibition at 1 μM ABHD6. As to the method:
(§1) After 30 min, FP—Rh (1.0 μL, 50 μM in DMSO) was added and the mixture was incubated for another 30 min at 37° C. Reactions were quenched with SDS loading buffer (50 μL-4×) and run on SDS-PAGE. Following gel imaging, serine hydrolase activity was determined by measuring fluorescent intensity of gel bands corresponding to MAGL, ABHD6 and FAAH using ImageJ 1.43 u software.
(§2) hMAGL was expressed in HEK293T cells according to previously reported methods (see Niphakis, Long, and Blankman, J. L., et al. (2007) Chem. Biol. 14:1347-1356). Cell lysates were diluted with mock proteomes for use in competitive ABPP experiments.

Another assay deals with T2, FAAH (Mus musculus, UniProt O08914).
T2 sequence (O08914 1-579): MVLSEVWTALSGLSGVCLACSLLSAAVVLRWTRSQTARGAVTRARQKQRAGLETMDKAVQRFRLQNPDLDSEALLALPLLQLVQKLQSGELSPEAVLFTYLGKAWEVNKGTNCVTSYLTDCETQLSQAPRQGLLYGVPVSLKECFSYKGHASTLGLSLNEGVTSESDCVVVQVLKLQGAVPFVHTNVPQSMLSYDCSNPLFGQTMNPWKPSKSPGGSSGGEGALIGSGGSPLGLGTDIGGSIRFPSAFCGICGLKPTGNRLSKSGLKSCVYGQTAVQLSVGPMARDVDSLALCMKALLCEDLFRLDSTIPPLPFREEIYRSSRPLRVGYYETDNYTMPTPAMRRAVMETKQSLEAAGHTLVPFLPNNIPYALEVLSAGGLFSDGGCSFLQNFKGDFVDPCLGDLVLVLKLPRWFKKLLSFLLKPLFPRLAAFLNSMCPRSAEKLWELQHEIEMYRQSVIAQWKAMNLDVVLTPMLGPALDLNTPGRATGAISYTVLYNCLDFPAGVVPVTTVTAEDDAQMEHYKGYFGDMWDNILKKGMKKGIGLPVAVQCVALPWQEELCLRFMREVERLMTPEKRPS
The following applies: read-out: % Inhibition at 1 μM FAAH. As to the method:
as §1, §2

The target of the next assay is T3, MAGL (Mus musculus, UniProt O35678).
T3 sequence (O35678 1-303): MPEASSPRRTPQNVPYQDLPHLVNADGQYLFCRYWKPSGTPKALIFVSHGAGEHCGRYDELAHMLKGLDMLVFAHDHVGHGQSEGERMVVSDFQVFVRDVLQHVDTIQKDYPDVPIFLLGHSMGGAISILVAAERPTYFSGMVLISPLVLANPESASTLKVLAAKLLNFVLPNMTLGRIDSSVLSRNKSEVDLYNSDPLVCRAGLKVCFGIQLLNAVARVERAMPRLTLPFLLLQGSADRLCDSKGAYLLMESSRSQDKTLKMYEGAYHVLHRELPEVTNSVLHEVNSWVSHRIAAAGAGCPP
The following applies: read-out: % Inhibition at 1 μM MAGL. The protocol: After 30 min, FP—Rh (1.0 μL, 50 μM in DMSO) was added and the mixture was incubated for another 30 min at 37° C. Reactions were quenched with SDS loading buffer (50 μL-4×) and run on SDS-PAGE.
Cell lysates were diluted with mock proteomes for use in competitive ABPP experiments.

For `O=C(OC(C(F)(F)F)C(F)(F)F)N1CC2CN(C(c3ccc(Cl)cc3)c3ccc(Cl)cc3)CC2C1` (stereo not drawn) [Example 8, 1,1,1,3,3,3-Hexafluoropropan-2-yl 5-[bis(4-chlorophenyl)methyl]-octahydropyrrolo[3,4-c]pyrrole-2-carboxylate], the inhibition at 1 µM at ABHD6 is 25 to 75%; at FAAH, below 25%; on MAGL, 25 to 75%.
On to `O=C(ON1C(=O)CCC1=O)N1CC2CN(Cc3ccc(Cl)cc3N3CCN4CCC[C@@H]4C3)CC2C1` (stereo partly drawn) [Example 109, 2,5-Dioxopyrrolidin-1-yl 5-(4-chloro-2-((R)-hexahydropyrrolo[1,2-a]pyrazin-2(1H)-yl)benzyl)-hexahydropyrrolo[3,4-c]pyrrole-2(1H)-carboxylate], for which the inhibition at 1 µM at ABHD6, on FAAH and on MAGL was below 25% in each case.
For the molecule `Cc1c(CN2CC3CN(C(=O)ON4C(=O)CCC4=O)CC3C2)cccc1N1CCN(C)CC1` (stereo not drawn) [Example 145], the inhibition at 1 µM on ABHD6, on FAAH and at MAGL was below 25% each time.
Take `Cn1cc(CN2CC3CN(C(=O)OC(C(F)(F)F)C(F)(F)F)CC3C2)c(C2CCN(S(C)(=O)=O)CC2)n1` (stereo not drawn) [Example 56, 1,1,1,3,3,3-Hexafluoropropan-2-yl 5-[[3-(1-methanesulfonylpiperidin-4-yl)-1-methyl-1H-pyrazol-4-yl]methyl]-octahydropyrrolo[3,4-c]pyrrole-2-carboxylate]: the figures for the inhibition at 1 µM on ABHD6, at FAAH and at MAGL were below 25%, below 25% and above 75%, respectively.
Turning to `Cc1cccc(CN2CC3CN(C(=O)ON4C(=O)CCC4=O)CC3C2)c1N1CCCCC1` (stereo not drawn) [Example 105, 2,5-Dioxopyrrolidin-1-yl 5-[[3-methyl-2-(piperidin-1-yl)phenyl]methyl]-octahydropyrrolo[3,4-c]pyrrole-2-carboxylate], the inhibition at 1 µM on ABHD6 is below 25%; on FAAH, below 25%; on MAGL it was 25 to 75%.
With `Cc1c(CN2CC3CN(C(=O)ON4C(=O)CCC4=O)CC3C2)cccc1N1CCC(NS(C)(=O)=O)CC1` (stereo not drawn) [Example 140, 2,5-dioxopyrrolidin-1-yl 5-[[3-(4-methanesulfonamidopiperidin-1-yl)-2-methylphenyl]methyl]-octahydropyrrolo[3,4-c]pyrrole-2-carboxylate], the results for the inhibition at 1 µM on ABHD6, on FAAH and on MAGL were below 25%, below 25% and 25 to 75%, respectively.
As to `CC(C)n1cc(CN2CC3CN(C(=O)ON4C(=O)CCC4=O)CC3C2)c(C2CCN(S(C)(=O)=O)CC2)n1` (stereo not drawn) [Example 120, 2,5-Dioxopyrrolidin-1-yl 5-[[3-(1-methanesulfonylpiperidin-4-yl)-1-(propan-2-yl)-1H-pyrazol-4-yl]methyl]-octahydropyrrolo[3,4-c]pyrrole-2-carboxylate], the inhibition at 1 µM at ABHD6, on FAAH and at MAGL was below 25% throughout.
Regarding `CCn1cc(CN2CC3CN(C(=O)OC(C(F)(F)F)C(F)(F)F)CC3C2)c(-c2ccc(N3CCOCC3)cc2)n1` (stereo not drawn) [Example 68, 1,1,1,3,3,3-Hexafluoropropan-2-yl 5-([1-ethyl-3-[4-(morpholin-4-yl)phenyl]-1H-pyrazol-4-yl]methyl)-octahydropyrrolo[3,4-c]pyrrole-2-carboxylate], the inhibition at 1 µM at ABHD6 is below 25%; at FAAH it was below 25%; at MAGL, above 75%.
With `CCn1cc(CN2CC3CN(C(=O)OC(C(F)(F)F)C(F)(F)F)CC3C2)c(C(=O)N2CCOCC2)n1` (stereo not drawn) [Example 76, 1,1,1,3,3,3-Hexafluoropropan-2-yl 5-((1-ethyl-3-(morpholine-4-carbonyl)-1H-pyrazol-4-yl)methyl)hexahydropyrrolo[3,4-c]pyrrole-2(1H)-carboxylate], the figures for the inhibition at 1 µM on ABHD6, at FAAH and on MAGL were below 25%, below 25% and 25 to 75%, respectively.
On to `CC(=O)N1CCC(n2nc(C)cc2CN2CC3CN(C(=O)ON4C(=O)CCC4=O)CC3C2)CC1` (stereo not drawn) [Example 122, 2,5-Dioxopyrrolidin-1-yl 5-[[1-(1-acetylpiperidin-4-yl)-3-methyl-1H-pyrazol-5-yl]methyl]-octahydropyrrolo[3,4-c]pyrrole-2-carboxylate], for which the inhibition at 1 µM on ABHD6, on FAAH and on MAGL was below 25% in each case.
For `O=C(ON1C(=O)CCC1=O)N1CC2CN(Cc3ccc(C(=O)N4CCC4)cc3Cl)CC2C1` (stereo not drawn) [Example 165, 2,5-dioxopyrrolidin-1-yl5-(4-(azetidine-1-carbonyl)-2-chlorobenzyl)-hexahydropyrrolo[3,4-c]pyrrole-2(1H)-carboxylate], the inhibition at 1 µM at ABHD6 is below 25%; on FAAH it was below 25%; at MAGL, 25 to 75%.
Turning to `Cn1nc(-c2ccccc2)cc1CN1CC2CN(C(=O)ON3C(=O)CCC3=O)CC2C1` (stereo not drawn) [Example 197, 2,5-dioxopyrrolidin-1-yl 5-((1-methyl-3-phenyl-1H-pyrazol-5-yl)methyl)hexahydropyrrolo[3,4-c]pyrrole-2(1H)-carboxylate], the inhibition at 1 µM on ABHD6, at FAAH and on MAGL was below 25% each time.
For the molecule `CC(C)n1cc(CN2CC3CN(C(=O)ON4C(=O)CCC4=O)CC3C2)c(-c2ccccc2)n1` (stereo not drawn) [Example 117, 2,5-Dioxopyrrolidin-1-yl 5-[[3-phenyl-1-(propan-2-yl)-1H-pyrazol-4-yl]methyl]-octahydropyrrolo[3,4-c]pyrrole-2-carboxylate], the inhibition at 1 µM at ABHD6 is 25 to 75%; on FAAH, below 25%; on MAGL, 25 to 75%.
With `Cc1cc(CN2CC3CN(C(=O)ON4C(=O)CCC4=O)CC3C2)n(C(C)C)n1` (stereo not drawn) [Example 121, 2,5-Dioxopyrrolidin-1-yl 5-[[3-methyl-1-(propan-2-yl)-1H-pyrazol-5-yl]methyl]-octahydropyrrolo[3,4-c]pyrrole-2-carboxylate], the inhibition at 1 µM at ABHD6, on FAAH and at MAGL was below 25% each time.
Regarding `CCn1cc(CN2CC3CN(C(=O)OC(C(F)(F)F)C(F)(F)F)CC3C2)c(-c2ccccn2)n1` (stereo not drawn) [Example 70, 1,1,1,3,3,3-Hexafluoropropan-2-yl 5-[[1-ethyl-3-(pyridin-2-yl)-1H-pyrazol-4-yl]methyl]-octahydropyrrolo[3,4-c]pyrrole-2-carboxylate], the inhibition at 1 µM on ABHD6 was below 25%; at FAAH it was below 25%; at MAGL it was 25 to 75%.
For the molecule `CC(=O)NC1CCN(c2cccc(CN3CC4CN(C(=O)ON5C(=O)CCC5=O)CC4C3)c2C)CC1` (stereo not drawn) [Example 142, 2,5-dioxopyrrolidin-1-yl 5-[[3-(4-acetamidopiperidin-1-yl)-2-methylphenyl]methyl]-octahydropyrrolo[3,4-c]pyrrole-2-carboxylate], the inhibition at 1 µM on ABHD6, on FAAH and at MAGL was below 25% each time.
Consider `Cn1cc(CN2CC3CN(C(=O)ON4C(=O)CCC4=O)CC3C2)c(-c2ccccc2Cl)n1` (stereo not drawn) [Example 115, 2,5-Dioxopyrrolidin-1-yl 5-[[3-(2-chlorophenyl)-1-methyl-1H-pyrazol-4-yl]methyl]-octahydropyrrolo[3,4-c]pyrrole-2-carboxylate], for which the inhibition at 1 µM at ABHD6 was below 25%; at FAAH, below 25%; at MAGL, 25 to 75%.
